Experimental data from US20250312352A1, “GLP-1R MODULATING COMPOUNDS” (Gilead Sciences, Inc., priority 2021, published 2025).

Target: T1, GLP-1R (Homo sapiens, UniProt P43220)
T1 construct: host or cells: CHO cells
Test: GLP-1R activation cAMP assay (Assay 1 or Assay 2)
Assay type: cell-based
Conditions: cAMP increase in CHO cells stably expressing GLP-1R; compounds run on one of the two cAMP assays
Method in brief: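 CHO cells stably expressing human GLP-1R were incubated 1 h in HBSS/20 mM HEPES/0.1% BSA, then exposed to 10-point agonist dilutions for 30 min at 37 °C. cAMP increase was measured with an HTRF Gs dynamic kit; EC50 from sigmoidal fit of response versus log concentration.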

T1 sequence (P43220 24-463): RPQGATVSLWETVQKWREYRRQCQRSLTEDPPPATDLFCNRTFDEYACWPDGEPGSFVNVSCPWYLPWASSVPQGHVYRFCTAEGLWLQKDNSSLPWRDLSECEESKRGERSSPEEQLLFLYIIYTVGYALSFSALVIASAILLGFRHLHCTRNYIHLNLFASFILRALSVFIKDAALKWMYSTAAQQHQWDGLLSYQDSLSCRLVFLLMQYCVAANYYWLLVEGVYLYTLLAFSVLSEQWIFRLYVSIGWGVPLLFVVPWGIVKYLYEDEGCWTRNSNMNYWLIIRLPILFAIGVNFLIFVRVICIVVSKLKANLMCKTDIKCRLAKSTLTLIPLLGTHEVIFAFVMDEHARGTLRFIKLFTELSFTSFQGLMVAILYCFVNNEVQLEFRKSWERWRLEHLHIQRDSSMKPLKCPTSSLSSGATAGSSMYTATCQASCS

Point of comparison: CCOC(=O)N1Cc2ccc(COc3cccc(-c4cc(F)c(Cc5nc6ccc(C(=O)O)cc6n5C[C@@H]5CCO5)cc4F)n3)cc2C1 [Example 435, (S)-2-(4-(6-((2-(ethoxycarbonyl)isoindolin-5-yl)methoxy)pyridin-2-yl)-2,5-difluorobenzyl)-1-(oxetan-2-ylmethyl)-1H-benzo[d]imidazole-6-carboxylic acid], EC50 0.427 nM. Against it:
- Cc1cc(Cc2nc3ccc(C(=O)O)cc3n2[C@@H]2COCC2(C)C)c(Cl)cc1-c1ccc(F)c(OCc2ncc(C(C)(F)F)s2)n1 [Example 427, (S)-2-(2-chloro-4-(6-((5-(1,1-difluoroethyl)thiazol-2-yl)methoxy)-5-fluoropyridin-2-yl)-5-methylbenzyl)-1-(4,4-dimethyltetrahydrofuran-3-yl)-1H-benzo[d]imidazole-6-carboxylic acid] — 3.3-fold higher, 1.42 nM
- Cc1cc(Cc2nc3ccc(C(=O)O)cc3n2[C@@H]2COCC2(C)C)c(Cl)cc1-c1cccc(OCc2ncc(C(C)(F)F)s2)n1 [Example 428, (S)-2-(2-chloro-4-(6-((5-(1,1-difluoroethyl)thiazol-2-yl)methoxy)pyridin-2-yl)-5-methylbenzyl)-1-(4,4-dimethyltetrahydrofuran-3-yl)-1H-benzo[d]imidazole-6-carboxylic acid] — 8.5-fold higher, 3.63 nM
- COc1nnc(COc2nc(-c3ccc(Cc4nc5c(F)cc(C(=O)O)cc5n4[C@@H]4COCC4(C)C)c(F)c3)ccc2F)s1 [Example 429, (S)-1-(4,4-dimethyltetrahydrofuran-3-yl)-4-fluoro-2-(2-fluoro-4-(5-fluoro-6-((5-methoxy-1,3,4-thiadiazol-2-yl)methoxy)pyridin-2-yl)benzyl)-1H-benzo[d]imidazole-6-carboxylic acid] — 18-fold lower, 0.024 nM
- CCOc1nnc(COc2cccc(-c3cc(F)c(Cc4nc5ccc(C(=O)O)cc5n4[C@@H]4COCC4(C)C)cc3F)n2)s1 [Example 430, (S)-1-(4,4-dimethyltetrahydrofuran-3-yl)-2-(4-(6-((5-ethoxy-1,3,4-thiadiazol-2-yl)methoxy)pyridin-2-yl)-2,5-difluorobenzyl)-1H-benzo[d]imidazole-6-carboxylic acid] — 11-fold lower, 0.039 nM
- CC1(C)COC[C@H]1n1c(Cc2cc(F)c(-c3cccc(OCc4nnc(C5CC5)s4)n3)cc2F)nc2ccc(C(=O)O)cc21 [Example 431, (S)-2-(4-(6-((5-cyclopropyl-1,3,4-thiadiazol-2-yl)methoxy)pyridin-2-yl)-2,5-difluorobenzyl)-1-(4,4-dimethyltetrahydrofuran-3-yl)-1H-benzo[d]imidazole-6-carboxylic acid] — 2.2-fold lower, 0.195 nM
- CC1(C)COC[C@H]1n1c(Cc2cc(F)c(-c3cccc(OCc4nnc(C(F)F)s4)n3)cc2F)nc2ccc(C(=O)O)cc21 [Example 432, (S)-2-(4-(6-((5-(difluoromethyl)-1,3,4-thiadiazol-2-yl)methoxy)pyridin-2-yl)-2,5-difluorobenzyl)-1-(4,4-dimethyltetrahydrofuran-3-yl)-1H-benzo[d]imidazole-6-carboxylic acid] — 4.6-fold lower, 0.093 nM
- CC1(C)COC[C@H]1n1c(Cc2cc(F)c(-c3cccc(OCc4nnc(C(F)(F)F)s4)n3)cc2F)nc2ccc(C(=O)O)cc21 [Example 433, (S)-2-(2,5-difluoro-4-(6-((5-(trifluoromethyl)-1,3,4-thiadiazol-2-yl)methoxy)pyridin-2-yl)benzyl)-1-(4,4-dimethyltetrahydrofuran-3-yl)-1H-benzo[d]imidazole-6-carboxylic acid] — within 1.5-fold, 0.413 nM
- COc1nnc(COc2cccc(-c3cc(Cl)c(Cc4nc5ccc(C(=O)O)cc5n4[C@@H]4COCC4(C)C)cc3F)n2)s1 [Example 434, (S)-2-(2-chloro-5-fluoro-4-(6-((5-methoxy-1,3,4-thiadiazol-2-yl)methoxy)pyridin-2-yl)benzyl)-1-(4,4-dimethyltetrahydrofuran-3-yl)-1H-benzo[d]imidazole-6-carboxylic acid] — 4.9-fold lower, 0.087 nM
- Cc1cc(Cc2nc3c(F)cc(C(=O)O)cc3n2[C@@H]2COCC2(C)C)c(F)cc1-c1ccc(F)c(OCc2ncc(C(F)(F)F)s2)n1 [Example 436, (S)-1-(4,4-dimethyltetrahydrofuran-3-yl)-4-fluoro-2-(2-fluoro-4-(5-fluoro-6-((5-(trifluoromethyl)thiazol-2-yl)methoxy)pyridin-2-yl)-5-methylbenzyl)-1H-benzo[d]imidazole-6-carboxylic acid] — within 1.5-fold, 0.367 nM
- CC1(C)COCC1n1c(Cc2cc(F)c(-c3cccc(OCc4ncc(C(F)(F)F)s4)n3)cc2F)nc2c(F)cc(C(=O)O)cc21 (centres unmarked) [Example 437, 2-(2,5-difluoro-4-(6-((5-(trifluoromethyl)thiazol-2-yl)methoxy)pyridin-2-yl)benzyl)-1-(4,4-dimethyltetrahydrofuran-3-yl)-4-fluoro-1H-benzo[d]imidazole-6-carboxylic acid] — 4.1-fold lower, 0.105 nM
- O=C(O)c1ccc2nc(Cc3cc(F)c(-c4cccc(OCc5ccc(C#Cc6cn[nH]c6)nc5)n4)cc3F)n(C[C@@H]3CCO3)c2c1 [Example 438, (S)-2-(4-(6-((6-((1H-pyrazol-4-yl)ethynyl)pyridin-3-yl)methoxy)pyridin-2-yl)-2,5-difluorobenzyl)-1-(oxetan-2-ylmethyl)-1H-benzo[d]imidazole-6-carboxylic acid] — within 1.5-fold, 0.335 nM
- COc1nnc(COc2cccc(-c3cc(F)c(Cc4nc5c(F)cc(C(=O)O)cc5n4[C@@H]4COCC4(C)C)c(F)c3)n2)s1 [Example 439, (S)-2-(2,6-difluoro-4-(6-((5-methoxy-1,3,4-thiadiazol-2-yl)methoxy)pyridin-2-yl)benzyl)-1-(4,4-dimethyltetrahydrofuran-3-yl)-4-fluoro-1H-benzo[d]imidazole-6-carboxylic acid] — within 1.5-fold, 0.397 nM
- CC1(C)COC[C@H]1n1c(Cc2ccc(-c3cccc(OCc4ccc(C#N)cc4F)n3)cc2F)nc2c(F)cc(C(=O)O)cc21 [Example 440, (S)-2-(4-(6-((4-cyano-2-fluorobenzyl)oxy)pyridin-2-yl)-2-fluorobenzyl)-1-(4,4-dimethyltetrahydrofuran-3-yl)-4-fluoro-1H-benzo[d]imidazole-6-carboxylic acid] — 10-fold lower, 0.041 nM
- COc1nnc(COc2nc(-c3cc(Cl)c(Cc4nc5ccc(C(=O)O)cc5n4[C@@H]4COCC4(C)C)cc3C)ccc2F)s1 [Example 441, (S)-2-(2-chloro-4-(5-fluoro-6-((5-methoxy-1,3,4-thiadiazol-2-yl)methoxy)pyridin-2-yl)-5-methylbenzyl)-1-(4,4-dimethyltetrahydrofuran-3-yl)-1H-benzo[d]imidazole-6-carboxylic acid] — within 1.5-fold, 0.475 nM
- COc1nnc(COc2cccc(-c3cc(Cl)c(Cc4nc5ccc(C(=O)O)cc5n4[C@@H]4COCC4(C)C)cc3C)n2)s1 [Example 442, (S)-2-(2-chloro-4-(6-((5-methoxy-1,3,4-thiadiazol-2-yl)methoxy)pyridin-2-yl)-5-methylbenzyl)-1-(4,4-dimethyltetrahydrofuran-3-yl)-1H-benzo[d]imidazole-6-carboxylic acid] — 1.6-fold higher, 0.669 nM
- COc1nnc(COc2nc(-c3cc(Cl)c(Cc4nc5c(F)cc(C(=O)O)cc5n4C[C@@H]4CCO4)cc3C)ccc2F)s1 [Example 443, (S)-2-(2-chloro-4-(5-fluoro-6-((5-methoxy-1,3,4-thiadiazol-2-yl)methoxy)pyridin-2-yl)-5-methylbenzyl)-4-fluoro-1-(oxetan-2-ylmethyl)-1H-benzo[d]imidazole-6-carboxylic acid] — 8.1-fold higher, 3.45 nM
- CNC(=O)c1cc(Cl)c(COc2cccc(-c3cc(F)c(Cc4nc5ccc(C(=O)O)cc5n4C[C@@H]4CCO4)cc3F)c2)cn1 [Example 444, (S)-2-((3′-((4-chloro-6-(methylcarbamoyl)pyridin-3-yl)methoxy)-2,5-difluoro-[1,1′-biphenyl]-4-yl)methyl)-1-(oxetan-2-ylmethyl)-1H-benzo[d]imidazole-6-carboxylic acid] — within 1.5-fold, 0.433 nM
- O=C(O)c1cc(Cl)c2nc(Cc3cc(F)c(-c4cccc(OCc5ncc(C(F)(F)F)s5)n4)cc3F)n(C[C@@H]3CCO3)c2c1 [Example 445, (S)-4-chloro-2-(2,5-difluoro-4-(6-((5-(trifluoromethyl)thiazol-2-yl)methoxy)pyridin-2-yl)benzyl)-1-(oxetan-2-ylmethyl)-1H-benzo[d]imidazole-6-carboxylic acid] — 4.2-fold lower, 0.101 nM
- O=C(O)c1ccc2nc(Cc3c(F)cc(-c4ccc(F)c(OCc5ncc(C(F)(F)F)s5)n4)c(F)c3F)n(C[C@@H]3CCO3)c2c1 [Example 446, (S)-1-(oxetan-2-ylmethyl)-2-(2,3,6-trifluoro-4-(5-fluoro-6-((5-(trifluoromethyl)thiazol-2-yl)methoxy)pyridin-2-yl)benzyl)-1H-benzo[d]imidazole-6-carboxylic acid] — 2.5-fold lower, 0.17 nM
- O=C(O)c1cc(F)c2nc(Cc3c(F)cc(-c4ccc(F)c(OCc5ncc(C(F)(F)F)s5)n4)c(F)c3F)n(C[C@@H]3CCO3)c2c1 [Example 447, (S)-4-fluoro-1-(oxetan-2-ylmethyl)-2-(2,3,6-trifluoro-4-(5-fluoro-6-((5-(trifluoromethyl)thiazol-2-yl)methoxy)pyridin-2-yl)benzyl)-1H-benzo[d]imidazole-6-carboxylic acid] — 21-fold lower, 0.02 nM
- O=C(O)c1ccc2nc(Cc3c(F)cc(-c4cccc(OCc5ncc(C(F)(F)F)s5)n4)c(F)c3F)n(C[C@@H]3CCO3)c2c1 [Example 448, (S)-1-(oxetan-2-ylmethyl)-2-(2,3,6-trifluoro-4-(6-((5-(trifluoromethyl)thiazol-2-yl)methoxy)pyridin-2-yl)benzyl)-1H-benzo[d]imidazole-6-carboxylic acid] — 3.6-fold lower, 0.118 nM
- O=C(O)c1cc(F)c2nc(Cc3c(F)cc(-c4cccc(OCc5ncc(C(F)(F)F)s5)n4)c(F)c3F)n(C[C@@H]3CCO3)c2c1 [Example 449, (S)-4-fluoro-1-(oxetan-2-ylmethyl)-2-(2,3,6-trifluoro-4-(6-((5-(trifluoromethyl)thiazol-2-yl)methoxy)pyridin-2-yl)benzyl)-1H-benzo[d]imidazole-6-carboxylic acid] — 5.3-fold lower, 0.081 nM
